According to patent publication US11066396B2 (priority 2016, dated 2021):

What follows are molecules tested against HDAC1 (Homo sapiens (Human), UniProt Q13547). Conditions: read-out: HDAC1 IC50.
HDAC1, sequence (Q13547 whole entry): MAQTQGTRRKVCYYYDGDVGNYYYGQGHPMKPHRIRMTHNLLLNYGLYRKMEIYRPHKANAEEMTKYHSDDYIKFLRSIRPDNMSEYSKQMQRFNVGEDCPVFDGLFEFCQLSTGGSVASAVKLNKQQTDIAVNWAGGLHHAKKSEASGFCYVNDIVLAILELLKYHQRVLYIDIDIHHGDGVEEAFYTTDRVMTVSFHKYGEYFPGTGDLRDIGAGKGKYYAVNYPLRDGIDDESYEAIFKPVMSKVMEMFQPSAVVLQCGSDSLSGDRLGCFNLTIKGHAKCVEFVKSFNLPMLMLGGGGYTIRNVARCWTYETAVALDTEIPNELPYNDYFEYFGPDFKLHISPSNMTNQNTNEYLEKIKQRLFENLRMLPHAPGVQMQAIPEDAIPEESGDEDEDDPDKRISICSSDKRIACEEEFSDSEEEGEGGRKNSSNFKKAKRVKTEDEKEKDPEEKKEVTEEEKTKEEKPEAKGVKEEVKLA

Q: For FC(F)(F)c1nc(-c2ccnc(OCc3cncc(Cl)n3)c2)no1 [Example 215, 2-chloro-6-[({4-[5-(trifluoromethyl)-1,2,4-oxadiazol-3-yl]pyridin-2-yl}oxy)methyl]pyrazine], which IC50 is on record?
A: 1200 nM

Q: O=C1CCc2cc(C(F)(F)F)ccc2N1Cc1ccc(-c2noc(C(F)(F)F)n2)cn1 [Example 464, 6-(trifluoromethyl)-1-({5-[5-(trifluoromethyl)-1,2,4-oxadiazol-3-yl]pyridin-2-yl}methyl)-3,4-dihydroquinolin-2(1H)-one] was tested. Which IC50 did it give?
A: 300 nM

Q: How did the IC50 turn out when FC(F)(F)c1nc(-c2ccnc(OCc3ccnn3-c3cccnc3)c2)no1 [Example 212, 2-[(1-pyridin-3-yl-1H-pyrazol-5-yl)methoxy]-4-[5-(trifluoromethyl)-1,2,4-oxadiazol-3-yl]pyridine] was run?
A: 1900 nM

Q: For O=C1CSc2ccccc2N1Cc1ccc(-c2noc(C(F)(F)F)n2)cn1 [Example 463, 4-({5-[5-(trifluoromethyl)-1,2,4-oxadiazol-3-yl]pyridin-2-yl}methyl)-2H-1,4-benzothiazin-3(4H)-one], which IC50 is on record?
A: 130 nM

Q: Which IC50 does the source give for FC(F)(F)c1nc(-c2ccnc(OCc3cc4n(n3)CCCO4)c2)no1 [Example 210, 2-[({4-[5-(trifluoromethyl)-1,2,4-oxadiazol-3-yl]pyridin-2-yl}oxy)methyl]-6,7-dihydro-5H-pyrazolo[5,1-b][1,3]oxazine] here?
A: 1200 nM

Q: How did the IC50 turn out when Cc1noc([C@H]2CCCCN2c2ccc(-c3noc(C(F)(F)F)n3)c(Cl)c2)n1 [Example 18, (R)-3-(2-Chloro-4-(2-(3-methyl-1,2,4-oxadiazol-5-yl)piperidin-1-yl)phenyl)-5-(trifluoromethyl)-1,2,4-oxadiazole] was run?
A: > 15000 nM

Q: For Cc1ccc2c3c(nn2c1)CCC(NCc1ccc(-c2noc(C(F)(F)F)n2)cc1)C3 (racemic) [Example 352, 8-methyl-N-({4-[5-(trifluoromethyl)-1,2,4-oxadiazol-3-yl]phenyl}methyl)-1,2,3,4-tetrahydropyrido[1,2-b]indazol-2-amine], which IC50 is on record?
A: 44 nM

Q: O=C(NCc1ccc(-c2noc(C(F)(F)F)n2)cc1)c1cc(N2CCOCC2)ccn1 [Example 204, 4-morpholin-4-yl-N-{4-[5-(trifluoromethyl)-1,2,4-oxadiazol-3-yl]benzyl}pyridine-2-carboxamide] was tested. Which IC50 did it give?
A: 1000 nM

Q: How did the IC50 turn out when Cc1cnc(COc2cc(-c3noc(C(F)(F)F)n3)ccn2)cn1 [Example 213, 2-methyl-5-[({4-[5-(trifluoromethyl)-1,2,4-oxadiazol-3-yl]pyridin-2-yl}oxy)methyl]pyrazine] was run?
A: 1900 nM

Q: How did the IC50 turn out when CC(C)n1ccc(COc2cc(-c3noc(C(F)(F)F)n3)ccn2)n1 [Example 223, 2-{[1-(1-methylethyl)-1H-pyrazol-3-yl]methoxy}-4-[5-(trifluoromethyl)-1,2,4-oxadiazol-3-yl]pyridine] was run?
A: 2400 nM

Q: For FC(F)(F)c1nc(-c2ccnc(OCc3ncccc3Cl)c2)no1 [Example 217, 3-chloro-2-[({4-[5-(trifluoromethyl)-1,2,4-oxadiazol-3-yl]pyridin-2-yl}oxy)methyl]pyridine], which IC50 is on record?
A: 3800 nM

Q: For O=C1CCc2ccc(Br)cc2N1Cc1ccc(-c2noc(C(F)(F)F)n2)cc1 [Example 319, 7-bromo-1-{4-[5-(trifluoromethyl)-1,2,4-oxadiazol-3-yl]benzyl}-3,4-dihydroquinolin-2(1H)-one], which IC50 is on record?
A: 180 nM

Q: With Cc1nc2cc(F)ccc2n1Cc1ccc(-c2noc(C(F)(F)F)n2)cn1 [Example 466, 5-fluoro-2-methyl-1-({5-[5-(trifluoromethyl)-1,2,4-oxadiazol-3-yl]pyridin-2-yl}methyl)-1H-benzimidazole] as the molecule, how does the IC50 read?
A: 840 nM

Q: Which IC50 does the source give for Fc1ccc2c(c1)N(Cc1ccc(-c3noc(C(F)(F)F)n3)cn1)CCO2 [Example 347, 6-fluoro-4-({5-[5-(trifluoromethyl)-1,2,4-oxadiazol-3-yl]pyridin-2-yl}methyl)-3,4-dihydro-2H-1,4-benzoxazine] here?
A: 600 nM

Q: For Cc1ccc2c3c(nn2c1)CCC(NCc1ccc(-c2noc(C(F)(F)F)n2)cc1)C3 (racemic) [Example 355, 8-methyl-N-({4-[5-(trifluoromethyl)-1,2,4-oxadiazol-3-yl]phenyl}methyl)-1,2,3,4-tetrahydropyrido[1,2-b]indazol-2-amine], which IC50 is on record?
A: 48 nM

Q: How did the IC50 turn out when O=c1cnc2ccccc2n1Cc1ccc(-c2noc(C(F)(F)F)n2)cn1 [Example 467, 1-({5-[5-(trifluoromethyl)-1,2,4-oxadiazol-3-yl]pyridin-2-yl}methyl)quinoxalin-2(1H)-one] was run?
A: 170 nM

Q: FC(F)Cn1nc(COc2cc(-c3noc(C(F)(F)F)n3)ccn2)cc1C1CC1 [Example 218, 2-{[5-cyclopropyl-1-(2,2-difluoroethyl)-1H-pyrazol-3-yl]methoxy}-4-[5-(trifluoromethyl)-1,2,4-oxadiazol-3-yl]pyridine] was tested. Which IC50 did it give?
A: 870 nM

Q: Which IC50 does the source give for Cc1cc(COc2cc(-c3noc(C(F)(F)F)n3)ccn2)nn1CC(F)F [Example 220, 2-{[1-(2,2-difluoroethyl)-5-methyl-1H-pyrazol-3-yl]methoxy}-4-[5-(trifluoromethyl)-1,2,4-oxadiazol-3-yl]pyridine] here?
A: 1200 nM

Q: How did the IC50 turn out when Cc1cc(C)nc(COc2cc(-c3noc(C(F)(F)F)n3)ccn2)c1 [Example 211, 2,4-dimethyl-6-[({4-[5-(trifluoromethyl)-1,2,4-oxadiazol-3-yl]pyridin-2-yl}oxy)methyl]pyridine] was run?
A: 2500 nM

Q: O=c1ccc2ccc(F)cc2n1Cc1ccc(-c2noc(C(F)(F)F)n2)cc1 [Example 322, 7-fluoro-1-{4-[5-(trifluoromethyl)-1,2,4-oxadiazol-3-yl]benzyl}quinolin-2(1H)-one] was tested. Which IC50 did it give?
A: 260 nM

Q: Which IC50 does the source give for NC(=O)c1cccc(CCOc2cc(-c3noc(C(F)(F)F)n3)ccn2)c1 [Example 459, 3-[2-({4-[5-(trifluoromethyl)-1,2,4-oxadiazol-3-yl]pyridin-2-yl}oxy)ethyl]benzamide] here?
A: 1800 nM

Q: For FC(F)(F)Cn1nc(COc2cc(-c3noc(C(F)(F)F)n3)ccn2)cc1C1CC1 [Example 219, 2-{[5-cyclopropyl-1-(2,2,2-trifluoroethyl)-1H-pyrazol-3-yl]methoxy}-4-[5-(trifluoromethyl)-1,2,4-oxadiazol-3-yl]pyridine], which IC50 is on record?
A: 920 nM

Q: FC(F)(F)c1nc(-c2ccnc(OCc3cncc(N4CCNCC4)n3)c2)no1 [Example 216, 2-piperazin-1-yl-6-[({4-[5-(trifluoromethyl)-1,2,4-oxadiazol-3-yl]pyridin-2-yl}oxy)methyl]pyrazine] was tested. Which IC50 did it give?
A: 1100 nM

Q: Which IC50 does the source give for O=C(NCc1ccc(-c2noc(C(F)(F)F)n2)cc1)c1cccc(O)c1 [Example 205, 3-hydroxy-N-{4-[5-(trifluoromethyl)-1,2,4-oxadiazol-3-yl]benzyl}benzamide] here?
A: 720 nM

Q: How did the IC50 turn out when CCn1cc(COc2cc(-c3noc(C(F)(F)F)n3)ccn2)c(C)n1 [Example 206, 2-[(1-ethyl-3-methyl-1H-pyrazol-4-yl)methoxy]-4-[5-(trifluoromethyl)-1,2,4-oxadiazol-3-yl]pyridine] was run?
A: 4200 nM

Q: FC(F)(F)c1nc(-c2ccc(CNc3cccc(-c4cnco4)c3)nc2)no1 [Example 360, 3-(1,3-oxazol-5-yl)-N-({5-[5-(trifluoromethyl)-1,2,4-oxadiazol-3-yl]pyridin-2-yl}methyl)aniline] was tested. Which IC50 did it give?
A: 7.6 nM

Q: With FC(F)(F)c1nc(-c2ccnc(OCc3c(Cl)nc4sccn34)c2)no1 [Example 208, 6-chloro-5-[({4-[5-(trifluoromethyl)-1,2,4-oxadiazol-3-yl]pyridin-2-yl}oxy)methyl]imidazo[2,1-b][1,3]thiazole] as the molecule, how does the IC50 read?
A: 3100 nM

Q: With Cn1nc(COc2cc(-c3noc(C(F)(F)F)n3)ccn2)cc1C(C)(C)C [Example 224, 2-[(5-tert-butyl-1-methyl-1H-pyrazol-3-yl)methoxy]-4-[5-(trifluoromethyl)-1,2,4-oxadiazol-3-yl]pyridine] as the molecule, how does the IC50 read?
A: 1200 nM

Q: With FC(F)(F)c1nc(-c2ccnc(OCc3cnc(Cl)cn3)c2)no1 [Example 214, 2-chloro-5-[({4-[5-(trifluoromethyl)-1,2,4-oxadiazol-3-yl]pyridin-2-yl}oxy)methyl]pyrazine] as the molecule, how does the IC50 read?
A: 1400 nM

Q: With O=C1CCc2ncccc2N1Cc1ccc(-c2noc(C(F)(F)F)n2)cn1 [Example 328, 1-({5-[5-(trifluoromethyl)-1,2,4-oxadiazol-3-yl]pyridin-2-yl}methyl)-3,4-dihydro-1,5-naphthyridin-2(1H)-one] as the molecule, how does the IC50 read?
A: 580 nM

Q: For CC1(Cc2ccc(-c3noc(C(F)(F)F)n3)cc2)C(=O)Nc2ccc(F)cc21 (centres unmarked) [Example 348, 5-fluoro-3-methyl-3-{4-[5-(trifluoromethyl)-1,2,4-oxadiazol-3-yl]benzyl}-1,3-dihydro-2H-indol-2-one], which IC50 is on record?
A: 2400 nM

Q: O=C1Nc2ccc(F)cc2C1Cc1ccc(-c2noc(C(F)(F)F)n2)cc1 (racemic) [Example 193, 5-fluoro-3-{4-[5-(trifluoromethyl)-1,2,4-oxadiazol-3-yl]benzyl}-1,3-dihydro-2H-indol-2-one] was tested. Which IC50 did it give?
A: 710 nM

Q: Which IC50 does the source give for FC(F)(F)c1nc(-c2ccnc(OCc3ccn(C4CC4)n3)c2)no1 [Example 222, 2-[(1-cyclopropyl-1H-pyrazol-3-yl)methoxy]-4-[5-(trifluoromethyl)-1,2,4-oxadiazol-3-yl]pyridine] here?
A: 3500 nM

Q: For O=C1c2cc(F)ccc2CCN1Cc1ccc(-c2noc(C(F)(F)F)n2)cn1 [Example 327, 7-fluoro-2-({5-[5-(trifluoromethyl)-1,2,4-oxadiazol-3-yl]pyridin-2-yl}methyl)-3,4-dihydroisoquinolin-1(2H)-one], which IC50 is on record?
A: 640 nM

Q: Which IC50 does the source give for FC(F)(F)c1nc(-c2ccc(CNc3cccc(-n4cncn4)c3)nc2)no1 [Example 364, 3-(1H-1,2,4-triazol-1-yl)-N-({5-[5-(trifluoromethyl)-1,2,4-oxadiazol-3-yl]pyridin-2-yl}methyl)aniline] here?
A: 60 nM

Q: With O=C1CCc2ccc(F)cc2N1Cc1ccc(-c2noc(C(F)(F)F)n2)cn1 [Example 323, 7-fluoro-1-({5-[5-(trifluoromethyl)-1,2,4-oxadiazol-3-yl]pyridin-2-yl}methyl)-3,4-dihydroquinolin-2(1H)-one] as the molecule, how does the IC50 read?
A: 53 nM

Q: With O=C1CCc2ccccc2N1Cc1ccc(-c2noc(C(F)(F)F)n2)cn1 [Example 324, 1-({5-[5-(trifluoromethyl)-1,2,4-oxadiazol-3-yl]pyridin-2-yl}methyl)-3,4-dihydroquinolin-2(1H)-one] as the molecule, how does the IC50 read?
A: 150 nM

Q: How did the IC50 turn out when O=c1ccc2ccccc2n1Cc1ccc(-c2noc(C(F)(F)F)n2)cn1 [Example 460, 1-({5-[5-(trifluoromethyl)-1,2,4-oxadiazol-3-yl]pyridin-2-yl}methyl)quinolin-2(1H)-one] was run?
A: 99 nM
